Reference: article PMC7815647 (Biochemistry and Biophysics Reports, 2021)

Tested on: Nit11764
Settings: 40 mM Na-K phosphate pH 7.0

Row | Structure (SMILES) | Km
1 | N#C/C=C/c1ccccc1 [Cinnamonitrile] | 1.27 ± 0.4 mM
2 | N#C/C=C/C#N [Fumaronitrile] | 8.57 ± 0.8 mM
